Experimental findings from patent publication US9133183B2, “Imidazolidinones and analogs exhibiting anti-cancer and anti-proliferative activities” (Deciphera Pharmaceuticals, LLC, priority 2013, dated 2015) are described below.

A value given as a limit tells only on which side of the number the result lay.

Test [1] has as its target c-FMS kinase in THP-1 cells (Homo sapiens (Human), UniProt P07333). Kind of test: Phospho-FMS ELISA assay in THP-1 cells. In kind it is cell-based. Conditions: 4 h compound, M-CSF stimulation 5 min; read-out: pFMS inhibition in THP-1 cells. The method, then: THP-1 cells (catalog #TIB-202) were obtained from the ATCC. Briefly, cells were grown in RPMI 1640 supplemented with 10% characterized fetal bovine serum, 1% sodium pyruvate, 1% Penicillin-Streptomycin-Glutamine (PSG) and 55 uM 2-mercaptoethanol (Invitrogen, Carlsbad, Calif.) at 37 degrees Celsius, 5% CO2, 95% humidity. Cells were allowed to expand until reaching 70-95% confluency at which point they were subcultured or harvested for assay use.
A serial dilution of test compound was diluted 1:100 in assay medium (RPMI 1640 supplemented with 10% characterized fetal bovine serum) in a 96 well black clear bottom plate (Corning, Corning, N.Y.). In a separate 96 well black clear bottom plate, one hundred and fifty thousand THP-1 cells were added per well in 100 μL in assay medium. Fifty microliters of diluted compound was then added to the cells. Plates were incubated for 4 hours at 37 degrees Celsius, 5% CO2, 95% humidity. At the end of the incubation period, cells were stimulated with 50 μL of a 100 nM solution of recombinant human M-CSF (catalog #216-MC, R & D Systems, Minneapolis, Minn.) in assay medium and the plate was incubated for 5 minutes at 37 degrees Celsius, 5% CO2, 95% humidity. Lysates were prepared and used to perform the phospho-FMS ELISA as described by the manufacturer (catalog #DYC3268, R & D Systems, Minneapolis, Minn.). GraphPad Prism was used to calculate IC50 values obtained from data generated from the ELISA assay.
In general terms: In an ELISA, binding on a coated surface is turned into a signal by an enzyme label.

The test system of the next test is osteoclast precursors. In words: Osteoclast tartrate-resistant acid phosphatase assay. The class given is cell-based. The note with it: Osteoclast, 7-14 days, RANKL and M-CSF.

c-FMS kinase in THP-1 cells, sequence (P07333 20-972): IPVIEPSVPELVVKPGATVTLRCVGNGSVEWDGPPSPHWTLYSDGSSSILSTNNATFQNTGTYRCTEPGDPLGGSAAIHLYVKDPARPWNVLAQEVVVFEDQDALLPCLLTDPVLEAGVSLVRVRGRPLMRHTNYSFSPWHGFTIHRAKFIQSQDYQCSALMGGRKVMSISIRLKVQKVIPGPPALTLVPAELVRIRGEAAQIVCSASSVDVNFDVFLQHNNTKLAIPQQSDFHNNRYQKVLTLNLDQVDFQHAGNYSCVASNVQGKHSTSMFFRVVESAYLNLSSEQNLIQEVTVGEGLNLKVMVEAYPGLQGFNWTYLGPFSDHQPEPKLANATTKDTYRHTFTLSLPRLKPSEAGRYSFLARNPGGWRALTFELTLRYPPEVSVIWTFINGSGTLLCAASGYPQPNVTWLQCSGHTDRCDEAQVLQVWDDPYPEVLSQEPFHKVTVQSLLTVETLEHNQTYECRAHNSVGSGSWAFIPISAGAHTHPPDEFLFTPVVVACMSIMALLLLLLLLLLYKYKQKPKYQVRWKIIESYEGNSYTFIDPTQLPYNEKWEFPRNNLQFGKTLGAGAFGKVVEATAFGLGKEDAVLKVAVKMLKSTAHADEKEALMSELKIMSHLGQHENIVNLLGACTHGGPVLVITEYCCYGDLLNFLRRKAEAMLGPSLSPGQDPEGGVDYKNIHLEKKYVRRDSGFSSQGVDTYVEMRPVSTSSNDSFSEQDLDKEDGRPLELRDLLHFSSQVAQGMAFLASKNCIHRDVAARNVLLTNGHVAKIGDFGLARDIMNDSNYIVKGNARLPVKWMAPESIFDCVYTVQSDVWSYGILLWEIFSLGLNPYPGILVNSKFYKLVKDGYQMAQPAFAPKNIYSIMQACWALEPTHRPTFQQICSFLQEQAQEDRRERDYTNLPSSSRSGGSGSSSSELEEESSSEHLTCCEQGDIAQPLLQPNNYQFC

For the molecule `Cc1nc(NC(=O)N2CCN(C(C)(C)C)C2=O)ccc1Oc1ccnc(-c2cnn(C)c2)c1` [Example 33, 3-(tert-butyl)-N-(6-methyl-5-((2-(1-methyl-1H-pyrazol-4-yl)pyridin-4-yl)oxy)pyridin-2-yl)-2-oxoimidazolidine-1-carboxamide], the IC50 was below 10 nM in test [1] and 10 to 100 nM in the test with osteoclast precursors.
In the same order, the values of `COCCCN1CCN(C(=O)Nc2ccc(Oc3ccnc(-c4cnn(C)c4)c3)c(C)n2)C1=O` [Example 19, 3-(3-methoxypropyl)-N-(6-methyl-5-((2-(1-methyl-1H-pyrazol-4-yl)pyridin-4-yl)oxy)pyridin-2-yl)-2-oxoimidazolidine-1-carboxamide] are 10 to 100 nM and 10 to 100 nM.
In the same order, the values of `CCN1CCN(C(=O)Nc2ccc(Oc3ccnc(-c4cnc(C)o4)c3)cn2)C1=O` [Example 117, 3-ethyl-N-(5-((2-(2-methyloxazol-5-yl)pyridin-4-yl)oxy)pyridin-2-yl)-2-oxoimidazolidine-1-carboxamide] are 10 to 100 nM and 10 to 100 nM.
The matching figures for `Cn1cc(-c2cc(Oc3ccc(NC(=O)N4CCN(C5CCOC5)C4=O)nc3)ccn2)cn1` (stereo in doubt) [Example 12, (S)—N-(5-((2-(1-methyl-1H-pyrazol-4-yl)pyridin-4-yl)oxy)pyridin-2-yl)-2-oxo-3-(tetrahydrofuran-3-yl)imidazolidine-1-carboxamide]: 10 to 100 nM and below 10 nM.
On to `CCc1nc(NC(=O)N2CCN(C3CCOCC3)C2=O)ccc1Oc1ccnc(-c2cnn(C)c2)c1` [Example 49, N-(6-ethyl-5-((2-(1-methyl-1H-pyrazol-4-yl)pyridin-4-yl)oxy)pyridin-2-yl)-2-oxo-3-(tetrahydro-2H-pyran-4-yl)imidazolidine-1-carboxamide], for which the IC50 in test [1] is 100 to 1000 nM; with osteoclast precursors, 10 to 100 nM.
The matching figures for `CC(=O)Nc1cc(Oc2ccc(NC(=O)N3CCN(C4CCOCC4)C3=O)nc2)ccn1` [Example 119, N-(5-((2-acetamidopyridin-4-yl)oxy)pyridin-2-yl)-2-oxo-3-(tetrahydro-2H-pyran-4-yl)imidazolidine-1-carboxamide]: 10 to 100 nM and 10 to 100 nM.
Take `Cc1ccc(-c2cc(Oc3ccc(NC(=O)N4CCN(C5CCOCC5)C4=O)nc3)ccn2)cn1` [Example 52, N-(5-((6′-methyl-[2,3′-bipyridin]-4-yl)oxy)pyridin-2-yl)-2-oxo-3-(tetrahydro-2H-pyran-4-yl)imidazolidine-1-carboxamide]: the results for the IC50 (in test [1]; in the test with osteoclast precursors) were 100 to 1000 nM and 10 to 100 nM, respectively.
The matching figures for `Cn1cc(-c2cc(Oc3ccc(NC(=O)N4CCN(CCOC(F)(F)F)C4=O)nc3)ccn2)cn1` [Example 21, N-(5-((2-(1-methyl-1H-pyrazol-4-yl)pyridin-4-yl)oxy)pyridin-2-yl)-2-oxo-3-(2-(trifluoromethoxy)ethyl)imidazolidine-1-carboxamide]: 10 to 100 nM and 10 to 100 nM.
In the same order, the values of `COCCN1CCN(C(=O)Nc2ccc(Oc3ccnc(-c4cnn(C)c4)c3)cn2)C1=O` [Example 10, 3-(2-methoxyethyl)-N-(5-((2-(1-methyl-11H-pyrazol-4-yl)pyridin-4-yl)oxy)pyridin-2-yl)-2-oxoimidazolidine-1-carboxamide] are below 10 nM and 10 to 100 nM.
The matching figures for `Cc1nc(NC(=O)N2CCN(C3CCC(F)(F)CC3)C2=O)ccc1Oc1ccnc(-c2cnn(C)c2)c1` [Example 26, 3-(4,4-difluorocyclohexyl)-N-(6-methyl-5-((2-(1-methyl-1H-pyrazol-4-yl)pyridin-4-yl)oxy)pyridin-2-yl)-2-oxoimidazolidine-1-carboxamide]: 10 to 100 nM and 10 to 100 nM.
In the case of `Cc1nc(NC(=O)N2CCN(C3CCCCC3)C2=O)ccc1Oc1ccnc(-c2cnn(C)c2)c1` [Example 22, 3-cyclohexyl-N-(6-methyl-5-((2-(1-methyl-1H-pyrazol-4-yl)pyridin-4-yl)oxy)pyridin-2-yl)-2-oxoimidazolidine-1-carboxamide], the values for the IC50 (in test [1]; in the test on osteoclast precursors) were 10 to 100 nM and below 10 nM, respectively.
The matching figures for `CCc1nc(NC(=O)N2CCN(C3CCCC3)C2=O)ccc1Oc1ccnc(-c2cnn(C)c2)c1` [Example 57, 3-cyclopentyl-N-(6-ethyl-5-((2-(1-methyl-1H-pyrazol-4-yl)pyridin-4-yl)oxy)pyridin-2-yl)-2-oxoimidazolidine-1-carboxamide]: 10 to 100 nM and 10 to 100 nM.
In the same order, the values of `CCc1nc(NC(=O)N2CCN(CC(F)(F)F)C2=O)ccc1Oc1ccnc(-c2cnn(C)c2)c1` [Example 56, N-(6-ethyl-5-((2-(1-methyl-1H-pyrazol-4-yl)pyridin-4-yl)oxy)pyridin-2-yl)-2-oxo-3-(2,2,2-trifluoroethyl)imidazolidine-1-carboxamide] are 100 to 1000 nM and 100 to 1000 nM.
In the same order, the values of `Cc1ccc(-c2cc(Oc3ccc(NC(=O)N4CCN(C5CCOCC5)C4=O)nc3C)ccn2)cn1` [Example 54, N-(6-methyl-5-((6′-methyl-[2,3′-bipyridin]-4-yl)oxy)pyridin-2-yl)-2-oxo-3-(tetrahydro-2H-pyran-4-yl)imidazolidine-1-carboxamide] are 100 to 1000 nM and 10 to 100 nM.
In the case of `CC(C)N1CCN(C(=O)Nc2ccc(Oc3ccnc(-c4cnn(C)c4)c3)cn2)C1=O` [Example 36, 3-isopropyl-N-(5-((2-(1-methyl-1H-pyrazol-4-yl)pyridin-4-yl)oxy)pyridin-2-yl)-2-oxoimidazolidine-1-carboxamide], the IC50 (in test [1]; with osteoclast precursors) was below 10 nM throughout.
`Cc1cc(-c2cc(Oc3ccc(NC(=O)N4CCN(C5CCOCC5)C4=O)nc3)ccn2)on1` [Example 7, N-(5-((2-(3-methylisoxazol-5-yl)pyridin-4-yl)oxy)pyridin-2-yl)-2-oxo-3-(tetrahydro-2H-pyran-4-yl)imidazolidine-1-carboxamide]: the IC50 (in test [1]; in the test on osteoclast precursors) was 10 to 100 nM throughout.
As to `Cn1cc(-c2cc(Oc3ccc(NC(=O)N4CCN(C(C)(C)C)C4=O)nc3)ccn2)cn1` [Example 34, 3-(tert-butyl)-N-(5-((2-(1-methyl-1H-pyrazol-4-yl)pyridin-4-yl)oxy)pyridin-2-yl)-2-oxoimidazolidine-1-carboxamide], the IC50 is below 10 nM in test [1] and 10 to 100 nM in the test on osteoclast precursors.
The matching figures for `Cc1nc(NC(=O)N2CCN(C3CCOCC3)C2=O)ccc1Oc1ccnc(-c2cnn(C)c2)c1` [Example 3, N-(6-methyl-5-((2-(1-methyl-1H-pyrazol-4-yl)pyridin-4-yl)oxy)pyridin-2-yl)-2-oxo-3-(tetrahydro-2H-pyran-4-yl)imidazolidine-1-carboxamide]: 10 to 100 nM and 10 to 100 nM.
The matching figures for `CCc1nc(NC(=O)N2CCN(C3CC3)C2=O)ccc1Oc1ccnc(-c2cnn(C)c2)c1` [Example 58, 3-cyclopropyl-N-(6-ethyl-5-((2-(1-methyl-1H-pyrazol-4-yl)pyridin-4-yl)oxy)pyridin-2-yl)-2-oxoimidazolidine-1-carboxamide]: 10 to 100 nM and 10 to 100 nM.
Consider `Cn1cc(-c2cc(Oc3ccc(NC(=O)N4CCN(C5CCC(F)(F)CC5)C4=O)nc3)ccn2)cn1` [Example 25, 3-(4,4-difluorocyclohexyl)-N-(5-((2-(1-methyl-1H-pyrazol-4-yl)pyridin-4-yl)oxy)pyridin-2-yl)-2-oxoimidazolidine-1-carboxamide], for which the IC50 is 10 to 100 nM in test [1] and below 10 nM in the test with osteoclast precursors.
The matching figures for `COCCCN1CCN(C(=O)Nc2ccc(Oc3ccnc(-c4cnn(C)c4)c3)cn2)C1=O` [Example 11, 3-(3-methoxypropyl)-N-(5-((2-(1-methyl-1H-pyrazol-4-yl)pyridin-4-yl)oxy)pyridin-2-yl)-2-oxoimidazolidine-1-carboxamide]: 10 to 100 nM and below 10 nM.
Consider `CCN1CCN(C(=O)Nc2cc(C)c(Oc3ccnc(-n4cnc(C)c4)c3)cn2)C1=O` [Example 88, 3-ethyl-N-(4-methyl-5-((2-(4-methyl-1H-imidazol-1-yl)pyridin-4-yl)oxy)pyridin-2-yl)-2-oxoimidazolidine-1-carboxamide], for which the IC50 (in test [1]; with osteoclast precursors) was 10 to 100 nM each time.
Take `CCN1CCN(C(=O)Nc2ccc(Oc3ccnc(-c4ccc(C5CCN(C)CC5)cc4)c3)c(C)n2)C1=O` [Example 61, 3-ethyl-N-(6-methyl-5-((2-(4-(1-methylpiperidin-4-yl)phenyl)pyridin-4-yl)oxy)pyridin-2-yl)-2-oxoimidazolidine-1-carboxamide]: the IC50 (in test [1]; in the test with osteoclast precursors) was below 10 nM throughout.
As to `COC[C@H](C)N1CCN(C(=O)Nc2ccc(Oc3ccnc(-c4cnn(C)c4)c3)cn2)C1=O` [Example 16, (S)-3-(1-methoxypropan-2-yl)-N-(5-((2-(1-methyl-11H-pyrazol-4-yl)pyridin-4-yl)oxy)pyridin-2-yl)-2-oxoimidazolidine-1-carboxamide], the IC50 in test [1] is 10 to 100 nM; in the test with osteoclast precursors, below 10 nM.
